# In PMC5218480 (PLoS ONE, 2017):
# System: MV-4-11 cells
# Assay: Gene expression microarray analysis (Affymetrix PrimeView) and GSEA
# Format: cell-based, human
# Design: RFU PODN (11730768_x_at) / Fold change /veh PODN (11730768_x_at) / RFU LINC00158 (11744669_a_at) / Fold change /veh LINC00158 (11744669_a_at) / RFU DUSP10 (11751237_a_at) / Fold change /veh DUSP10 (11751237_a_at) / RFU ID3 (11757404_x_at) / Fold change /veh ID3 (11757404_x_at) / RFU PLEKHG5 (11737974_s_at) / Fold change /veh PLEKHG5 (11737974_s_at) / RFU LRRC4B (11730491_at) / Fold change /veh LRRC4B (11730491_at) / RFU GIMAP4 (11747438_a_at) / Fold change /veh GIMAP4 (11747438_a_at) / RFU KRT8 (11758183_x_at) / Fold change /veh KRT8 (11758183_x_at) / RFU CNN1 (11734310_a_at) / Fold change /veh CNN1 (11734310_a_at) / RFU VPS37D (11726825_at) / Fold change /veh VPS37D (11726825_at) / RFU C10orf10 (11716522_x_at) / Fold change /veh C10orf10 (11716522_x_at) / RFU KIR2DL2 /// KIR2DL4 /// KIR2DL5A /// KIR2DL5B /// KIR2DS1 /// KIR2DS2 /// KIR2DS3 /// KIR2DS4 /// KIR3DL3 /// KIR3DL3 /// KIR3DS1 (11738374_at) / Fold change /veh KIR2DL2 /// KIR2DL4 /// KIR2DL5A /// KIR2DL5B /// KIR2DS1 /// KIR2DS2 /// KIR2DS3 /// KIR2DS4 /// KIR3DL3 /// KIR3DL3 /// KIR3DS1 (11738374_at) / RFU C1QL1 (11718748_at) / Fold change /veh C1QL1 (11718748_at) / RFU TMPRSS4 (11747572_a_at) / Fold change /veh TMPRSS4 (11747572_a_at) / RFU HAMP (11756126_x_at) / Fold change /veh HAMP (11756126_x_at) / RFU RNFT2 (11725882_a_at) / Fold change /veh RNFT2 (11725882_a_at) / RFU NR4A2 (11747474_a_at) / Fold change /veh NR4A2 (11747474_a_at) / RFU ABCC12 (11746883_a_at) / Fold change /veh ABCC12 (11746883_a_at) / RFU TMEM136 (11760407_x_at) / Fold change /veh TMEM136 (11760407_x_at) / RFU CLDN22 /// WWC2 (11732394_at) / Fold change /veh CLDN22 /// WWC2 (11732394_at) / RFU HLA-DPB1 (11760878_x_at) / Fold change /veh HLA-DPB1 (11760878_x_at) / RFU SPINT1 (11716480_a_at) / Fold change /veh SPINT1 (11716480_a_at) / RFU GAP43 (11754022_s_at) / Fold change /veh GAP43 (11754022_s_at) / RFU A4GNT (11735810_at) / Fold change /veh A4GNT (11735810_at) / RFU PRB3 (11715151_x_at) / Fold change /veh PRB3 (11715151_x_at) / RFU TUBB4B (11761932_at) / Fold change /veh TUBB4B (11761932_at) / RFU CAPN14 (11732068_a_at) / Fold change /veh CAPN14 (11732068_a_at) / RFU TMCC2 (11721928_a_at) / Fold change /veh TMCC2 (11721928_a_at) / RFU IRGQ (11745062_a_at) / Fold change /veh IRGQ (11745062_a_at) / RFU FAM174B (11720279_a_at) / Fold change /veh FAM174B (11720279_a_at) / RFU TMPRSS4 (11748680_a_at) / Fold change /veh TMPRSS4 (11748680_a_at) / RFU FAM212B (11763350_a_at) / Fold change /veh FAM212B (11763350_a_at) / RFU PLEKHG5 (11743358_a_at) / Fold change /veh PLEKHG5 (11743358_a_at) / RFU ZSCAN30 (11745921_a_at) / Fold change /veh ZSCAN30 (11745921_a_at) / RFU CMKLR1 (11741424_a_at) / Fold change /veh CMKLR1 (11741424_a_at) / RFU LOC101060620 /// MAPK8IP1 (11723275_at) / Fold change /veh LOC101060620 /// MAPK8IP1 (11723275_at) / RFU SPTSSB (11747773_x_at) / Fold change /veh SPTSSB (11747773_x_at) / RFU PRSS12 (11739890_at) / Fold change /veh PRSS12 (11739890_at) / RFU BIN1 (11741810_x_at) / Fold change /veh BIN1 (11741810_x_at) / RFU WNT11 (11732464_a_at) / Fold change /veh WNT11 (11732464_a_at) / RFU C10orf10 (11716521_a_at) / Fold change /veh C10orf10 (11716521_a_at) / RFU C5orf56 (11738089_at) / Fold change /veh C5orf56 (11738089_at) / RFU CYB561 (11721691_x_at) / Fold change /veh CYB561 (11721691_x_at) / RFU ANKRD19P (11752326_a_at) / Fold change /veh ANKRD19P (11752326_a_at) / RFU OR2T12 /// OR2T33 /// OR2T8 (11738714_s_at) / Fold change /veh OR2T12 /// OR2T33 /// OR2T8 (11738714_s_at) / RFU VCAN (11748164_a_at) / Fold change /veh VCAN (11748164_a_at) / RFU JSRP1 (11732532_at) / Fold change /veh JSRP1 (11732532_at) / RFU KRTAP10-11 (11738290_x_at) / Fold change /veh KRTAP10-11 (11738290_x_at) / RFU MYO3A (11730013_a_at) / Fold change /veh MYO3A (11730013_a_at) / RFU EBF3 (11725865_a_at) / Fold change /veh EBF3 (11725865_a_at) / RFU CAMK2N1 (11719241_x_at) / Fold change /veh CAMK2N1 (11719241_x_at) / RFU C5orf56 (11738088_a_at) / Fold change /veh C5orf56 (11738088_a_at) / RFU OLFML3 (11715873_a_at) / Fold change /veh OLFML3 (11715873_a_at) / RFU LOC100653217 /// NTM (11731650_a_at) / Fold change /veh LOC100653217 /// NTM (11731650_a_at) / RFU MAPK11 (11762145_a_at) / Fold change /veh MAPK11 (11762145_a_at) / RFU FIZ1 (11724087_x_at) / Fold change /veh FIZ1 (11724087_x_at) / RFU OASL (11726364_x_at) / Fold change /veh OASL (11726364_x_at) / RFU SOX15 (11748057_x_at) / Fold change /veh SOX15 (11748057_x_at) / RFU CD79A (11719716_a_at) / Fold change /veh CD79A (11719716_a_at) / RFU HIST1H1D (11736915_at) / Fold change /veh HIST1H1D (11736915_at) / RFU CASKIN2 (11723855_a_at) / Fold change /veh CASKIN2 (11723855_a_at) / RFU LOC730098 (11760151_x_at) / Fold change /veh LOC730098 (11760151_x_at) / RFU OR4N2 (11742367_at) / Fold change /veh OR4N2 (11742367_at) / RFU PRRT2 (11749266_a_at) / Fold change /veh PRRT2 (11749266_a_at) / RFU SNX32 (11753110_a_at) / Fold change /veh SNX32 (11753110_a_at) / RFU CDHR5 (11726645_a_at) / Fold change /veh CDHR5 (11726645_a_at) / RFU RCAN1 (11760418_a_at) / Fold change /veh RCAN1 (11760418_a_at) / RFU FAM167A (11723789_a_at) / Fold change /veh FAM167A (11723789_a_at) / RFU FAM26E (11764081_at) / Fold change /veh FAM26E (11764081_at) / RFU ISYNA1 (11749810_s_at) / Fold change /veh ISYNA1 (11749810_s_at) / RFU ACY1 (11761880_at) / Fold change /veh ACY1 (11761880_at) / RFU 11764098_at / Fold change /veh 11764098_at / RFU SAMD14 (11745864_x_at) / Fold change /veh SAMD14 (11745864_x_at) / RFU NPB (11741838_a_at) / Fold change /veh NPB (11741838_a_at) / RFU TMPRSS6 (11731388_a_at) / Fold change /veh TMPRSS6 (11731388_a_at) / RFU KRTAP10-2 (11738614_at) / Fold change /veh KRTAP10-2 (11738614_at) / RFU ARHGAP8 /// PRR5-ARHGAP8 (11727945_x_at) / Fold change /veh ARHGAP8 /// PRR5-ARHGAP8 (11727945_x_at) / RFU KRTAP5-7 /// NADSYN1 (11734609_at) / Fold change /veh KRTAP5-7 /// NADSYN1 (11734609_at) / RFU RASL12 (11751679_a_at) / Fold change /veh RASL12 (11751679_a_at) / RFU CDKN2B (11736163_a_at) / Fold change /veh CDKN2B (11736163_a_at) / RFU PRF1 (11729649_at) / Fold change /veh PRF1 (11729649_at) / RFU, ZNF638 /// ZNF638-IT1 / Fold change vs veh, ZNF638 /// ZNF638-IT1 / RFU, PANK3 / Fold change vs veh, PANK3 / RFU, SH3YL1 / Fold change vs veh, SH3YL1 / RFU, ZEB2 / Fold change vs veh, ZEB2 / RFU, NRIP1 / Fold change vs veh, NRIP1 / RFU, PTTG1IP / Fold change vs veh, PTTG1IP / RFU, CAPN2 / Fold change vs veh, CAPN2 / RFU, MED14 / Fold change vs veh, MED14 / RFU, SNORA58 / Fold change vs veh, SNORA58 / RFU, C1orf63 / Fold change vs veh, C1orf63 / RFU, LRRFIP1 / Fold change vs veh, LRRFIP1 / RFU, NDUFAF7 / Fold change vs veh, NDUFAF7 / RFU, SLC12A2 / Fold change vs veh, SLC12A2 / RFU, IBTK / Fold change vs veh, IBTK / RFU, ESF1 / Fold change vs veh, ESF1 / Fold change vs veh, TMEM50B / RFU, TAOK1 / Fold change vs veh, TAOK1 / RFU, ACBD3 / Fold change vs veh, ACBD3 / RFU, TMA16 / Fold change vs veh, TMA16 / RFU, RWDD3 / Fold change vs veh, RWDD3 / RFU, BCAT1 / Fold change vs veh, BCAT1 / RFU, EDEM3 / Fold change vs veh, EDEM3 / RFU, TMEM33 / Fold change vs veh, TMEM33 / RFU, WDR75 / Fold change vs veh, WDR75 / RFU, AHCTF1 / Fold change vs veh, AHCTF1 / RFU, TFRC / Fold change vs veh, TFRC / RFU, ZDHHC17 / Fold change vs veh, ZDHHC17 / RFU, NOM1 / Fold change vs veh, NOM1 / RFU, ARL8B / Fold change vs veh, ARL8B / RFU, ZBTB11 / Fold change vs veh, ZBTB11 / RFU, TAMM41 / Fold change vs veh, TAMM41 / RFU, KIAA1704 /// LOC100996395 / Fold change vs veh, KIAA1704 /// LOC100996395 / RFU, ING1 / Fold change vs veh, ING1 / RFU, TRMT61B / Fold change vs veh, TRMT61B / RFU, FUBP3 / Fold change vs veh, FUBP3 / RFU, TP53 / Fold change vs veh, TP53 / RFU, TNKS2 / Fold change vs veh, TNKS2 / RFU, ZFP14 / Fold change vs veh, ZFP14 / RFU, ACTR2 / Fold change vs veh, ACTR2 / RFU, PPP3R1 / Fold change vs veh, PPP3R1 / RFU, PIK3R1 / Fold change vs veh, PIK3R1 / RFU, HNRNPA1 / Fold change vs veh, HNRNPA1 / RFU, RNF170 / Fold change vs veh, RNF170 / RFU, ZNF28 / Fold change vs veh, ZNF28 / RFU, RNGTT / Fold change vs veh, RNGTT / RFU, OGT / Fold change vs veh, OGT / RFU, BRD1 / Fold change vs veh, BRD1 / RFU, MARS / Fold change vs veh, MARS / RFU, ZNF655 / Fold change vs veh, ZNF655 / RFU, FAHD1 / Fold change vs veh, FAHD1 / RFU, BDP1 / Fold change vs veh, BDP1 / RFU, LRRCC1 / Fold change vs veh, LRRCC1 / RFU, ARID1A / Fold change vs veh, ARID1A / RFU, ZNF146 / Fold change vs veh, ZNF146 / RFU, ZNF330 / Fold change vs veh, ZNF330 / RFU, GPN3 / Fold change vs veh, GPN3 / RFU, C9orf123 / Fold change vs veh, C9orf123 / RFU, N4BP2L2 / Fold change vs veh, N4BP2L2 / RFU, ARFIP1 / Fold change vs veh, ARFIP1 / RFU, FAM179B / Fold change vs veh, FAM179B / RFU, BCL10 / Fold change vs veh, BCL10 / RFU, UHRF1BP1L / Fold change vs veh, UHRF1BP1L / RFU, BET1 / Fold change vs veh, BET1 / RFU, CNOT2 / Fold change vs veh, CNOT2 / RFU, ZNF268 / Fold change vs veh, ZNF268 / Fold change vs veh, ZNF507 / RFU, DGCR2 / Fold change vs veh, DGCR2 / RFU, WDSUB1 / Fold change vs veh, WDSUB1 / Fold change vs veh, HSP90B1 /// MIR3652 / RFU, ADSS / Fold change vs veh, ADSS / RFU, GK / Fold change vs veh, GK / RFU, ZNF148 / Fold change vs veh, ZNF148 / RFU, TAF9 / Fold change vs veh, TAF9 / RFU, SLC1A5 / Fold change vs veh, SLC1A5 / RFU, SLMO2 / Fold change vs veh, SLMO2 / RFU, ABCC4 / Fold change vs veh, ABCC4 / RFU, LOC101060439 /// RAP1B / Fold change vs veh, LOC101060439 /// RAP1B / RFU, RFX7 / Fold change vs veh, RFX7 / RFU, GTPBP10 / Fold change vs veh, GTPBP10 / RFU, CNEP1R1 / Fold change vs veh, CNEP1R1 / RFU, BIVM-ERCC5 /// ERCC5 / Fold change vs veh, BIVM-ERCC5 /// ERCC5 / RFU, ILF3 / Fold change vs veh, ILF3 / RFU 11762660_at / Fold change /veh 11762660_at / RFU VCAN (11757783_s_at) / Fold change /veh VCAN (11757783_s_at) / RFU DDX43 (11728927_at) / Fold change /veh DDX43 (11728927_at) / RFU KRT8 (11758188_x_at) / Fold change /veh KRT8 (11758188_x_at) / RFU NKD1 (11759106_at) / Fold change /veh NKD1 (11759106_at) / RFU SRD5A1 (11742802_a_at) / Fold change /veh SRD5A1 (11742802_a_at) / RFU TPSAB1 /// TPSB2 (11721975_s_at) / Fold change /veh TPSAB1 /// TPSB2 (11721975_s_at) / RFU GSTM3 (11746129_a_at) / Fold change /veh GSTM3 (11746129_a_at) / RFU IL23R (11737362_x_at) / Fold change /veh IL23R (11737362_x_at) / RFU TMEM51 (11727254_a_at) / Fold change /veh TMEM51 (11727254_a_at) / RFU PIWIL2 (11732686_x_at) / Fold change /veh PIWIL2 (11732686_x_at) / RFU ORM1 (11744905_x_at) / Fold change /veh ORM1 (11744905_x_at) / RFU CCDC152 (11743942_at) / Fold change /veh CCDC152 (11743942_at) / RFU ECM1 (11717891_a_at) / Fold change /veh ECM1 (11717891_a_at) / RFU IL23R (11748794_a_at) / Fold change /veh IL23R (11748794_a_at) / RFU TNFAIP8L3 (11732012_x_at) / Fold change /veh TNFAIP8L3 (11732012_x_at) / RFU MBOAT4 (11741988_at) / Fold change /veh MBOAT4 (11741988_at) / RFU 11764193_at / Fold change /veh 11764193_at / RFU TMEM53 (11763286_at) / Fold change /veh TMEM53 (11763286_at) / RFU MAGEB2 (11727129_at) / Fold change /veh MAGEB2 (11727129_at) / RFU TMEM200A (11744735_a_at) / Fold change /veh TMEM200A (11744735_a_at) / RFU CCDC152 (11751479_a_at) / Fold change /veh CCDC152 (11751479_a_at) / RFU FAM211A (11726209_a_at) / Fold change /veh FAM211A (11726209_a_at) / RFU RGS16 (11746705_a_at) / Fold change /veh RGS16 (11746705_a_at) / RFU VCAN (11755009_s_at) / Fold change /veh VCAN (11755009_s_at) / RFU RHOB (11743442_s_at) / Fold change /veh RHOB (11743442_s_at) / RFU RGS16 (11720943_a_at) / Fold change /veh RGS16 (11720943_a_at) / RFU RGS16 (11720944_at) / Fold change /veh RGS16 (11720944_at) / RFU, VPS4B / Fold change vs veh, VPS4B / RFU, CREB1 / Fold change vs veh, CREB1 / RFU, DNAJC13 / Fold change vs veh, DNAJC13 / RFU, GNAQ / Fold change vs veh, GNAQ / RFU, CDK5R1 / Fold change vs veh, CDK5R1 / RFU, ZRANB3 / Fold change vs veh, ZRANB3 / RFU, CUL4A / Fold change vs veh, CUL4A / RFU, CCNY / Fold change vs veh, CCNY / RFU, UFL1 / Fold change vs veh, UFL1 / RFU, COG3 / Fold change vs veh, COG3 / RFU, DIAPH2 / Fold change vs veh, DIAPH2 / RFU, SKA2 / Fold change vs veh, SKA2 / RFU, AFF3 / Fold change vs veh, AFF3 / RFU, LMF1 / Fold change vs veh, LMF1 / RFU, IPO11 / Fold change vs veh, IPO11 / RFU, DFFB / Fold change vs veh, DFFB / RFU, FOXP1 / Fold change vs veh, FOXP1 / RFU, CARD8 / Fold change vs veh, CARD8 / RFU, STRN3 / Fold change vs veh, STRN3 / RFU, ADK / Fold change vs veh, ADK / RFU, RASSF2 / Fold change vs veh, RASSF2 / RFU, WIPF1 / Fold change vs veh, WIPF1 / RFU, LARP1B / Fold change vs veh, LARP1B / RFU, RASA1 / Fold change vs veh, RASA1 / RFU, RB1 / Fold change vs veh, RB1 / RFU, PPFIA1 / Fold change vs veh, PPFIA1 / RFU, MAT2A / Fold change vs veh, MAT2A / RFU, CCT5 / Fold change vs veh, CCT5 / RFU, WDR92 / Fold change vs veh, WDR92 / RFU, CUX1 / Fold change vs veh, CUX1 / RFU, TTC7A / Fold change vs veh, TTC7A / RFU, TMEM135 / Fold change vs veh, TMEM135 / RFU, DEPTOR / Fold change vs veh, DEPTOR / RFU, CPM / Fold change vs veh, CPM / RFU, DNAJB6 / Fold change vs veh, DNAJB6 / RFU, CACNA2D3 / Fold change vs veh, CACNA2D3 / RFU, DTX4 / Fold change vs veh, DTX4 / RFU, TFCP2 / Fold change vs veh, TFCP2 / RFU, GMCL1 /// GMCL1P1 / Fold change vs veh, GMCL1 /// GMCL1P1 / RFU, AEBP2 / Fold change vs veh, AEBP2 / RFU, SNHG1 /// SNORD22 /// SNORD25 /// SNORD26 /// SNORD27 /// SNORD28 /// SNORD29 /// SNORD31 / Fold change vs veh, SNHG1 /// SNORD22 /// SNORD25 /// SNORD26 /// SNORD27 /// SNORD28 /// SNORD29 /// SNORD31 / Fold change (Aza/veh), C12orf56 (ProbeSet 11735607_a_at) / Fold change (ACY-1035/veh), C12orf56 (ProbeSet 11735607_a_at) / Fold change (Aza/veh), FGFR1OP (ProbeSet 11751329_s_at) / Fold change (ACY-1035/veh), FGFR1OP (ProbeSet 11751329_s_at) / Fold change (Aza/veh), VPS36 (ProbeSet 11739960_a_at) / Fold change (ACY-1035/veh), VPS36 (ProbeSet 11739960_a_at) / RFU SYPL1 (11715823_x_at) / Fold change /veh SYPL1 (11715823_x_at) / RFU IGFBP7 (11715501_s_at) / Fold change /veh IGFBP7 (11715501_s_at) / RFU REEP3 (11722064_at) / Fold change /veh REEP3 (11722064_at) / RFU IGLL1 (11728026_x_at) / Fold change /veh IGLL1 (11728026_x_at): dose or concentration left out as unconfirmed
# Details: MV-4-11 cells, 48 hours
structure (smiles),measurement,value
Nc1ccc(-c2cccs2)cc1NC(=O)c1ccc2c(c1)cc(C1CC1)n2CCN1CCOCC1 [ACY-1035],Fold change /veh CCDC152 (11751479_a_at),1.05
